Experimental data as given in ChEMBL document CHEMBL3991601, “The target landscape of clinical kinase drugs” (Science, 2017).
Calls of active or inactive are those of the source. Rule as the data show it, for most assays here: actives have a measured Kd and inactives only a lower limit.

Legend:
[1] = molecular target: T1, MAP kinase-activated protein kinase 5 (Homo sapiens, UniProt Q8IW41)
T1 sequence (Q8IW41 whole entry): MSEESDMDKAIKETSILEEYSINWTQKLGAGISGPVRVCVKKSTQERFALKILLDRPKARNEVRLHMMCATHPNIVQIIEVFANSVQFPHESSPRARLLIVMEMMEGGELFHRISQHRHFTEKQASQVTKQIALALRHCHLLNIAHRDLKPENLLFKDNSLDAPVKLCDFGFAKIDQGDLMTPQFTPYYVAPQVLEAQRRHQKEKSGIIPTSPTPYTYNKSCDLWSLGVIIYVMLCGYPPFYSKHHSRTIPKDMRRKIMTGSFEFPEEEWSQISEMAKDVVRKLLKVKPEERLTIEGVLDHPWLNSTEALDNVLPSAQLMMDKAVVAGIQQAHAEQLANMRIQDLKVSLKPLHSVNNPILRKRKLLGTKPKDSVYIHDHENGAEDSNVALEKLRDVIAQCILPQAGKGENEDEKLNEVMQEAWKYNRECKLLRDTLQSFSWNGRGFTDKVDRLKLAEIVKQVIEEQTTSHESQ

[2] = molecular target: T2, Tyrosine--tRNA ligase, cytoplasmic (Homo sapiens, UniProt P54577)
T2 sequence (P54577 whole entry): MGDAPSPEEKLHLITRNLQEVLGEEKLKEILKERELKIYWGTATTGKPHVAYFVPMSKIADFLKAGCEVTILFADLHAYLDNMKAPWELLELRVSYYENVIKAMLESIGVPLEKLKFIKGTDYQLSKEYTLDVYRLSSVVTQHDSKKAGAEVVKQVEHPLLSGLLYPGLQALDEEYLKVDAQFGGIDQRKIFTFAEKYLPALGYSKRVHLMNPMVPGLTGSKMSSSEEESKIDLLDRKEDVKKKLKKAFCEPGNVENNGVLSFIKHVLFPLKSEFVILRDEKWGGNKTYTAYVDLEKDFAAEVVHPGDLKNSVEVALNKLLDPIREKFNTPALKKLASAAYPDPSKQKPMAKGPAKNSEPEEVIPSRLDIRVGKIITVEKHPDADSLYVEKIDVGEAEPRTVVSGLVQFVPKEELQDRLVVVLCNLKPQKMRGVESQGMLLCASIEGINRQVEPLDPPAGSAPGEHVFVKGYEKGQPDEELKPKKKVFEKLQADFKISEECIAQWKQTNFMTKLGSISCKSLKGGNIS

[3] = molecular target: AP2-associated protein kinase 1 (Homo sapiens, UniProt Q2M2I8)
[4] = molecular target: Tyrosine-protein kinase ABL1 (Homo sapiens, UniProt P00519)
[5] = molecular target: Mitogen-activated protein kinase 11 (Homo sapiens, UniProt Q15759)
[6] = molecular target: T3, Phosphorylase b kinase gamma catalytic chain, liver/testis isoform (Homo sapiens, UniProt P15735)
T3 sequence (P15735 whole entry): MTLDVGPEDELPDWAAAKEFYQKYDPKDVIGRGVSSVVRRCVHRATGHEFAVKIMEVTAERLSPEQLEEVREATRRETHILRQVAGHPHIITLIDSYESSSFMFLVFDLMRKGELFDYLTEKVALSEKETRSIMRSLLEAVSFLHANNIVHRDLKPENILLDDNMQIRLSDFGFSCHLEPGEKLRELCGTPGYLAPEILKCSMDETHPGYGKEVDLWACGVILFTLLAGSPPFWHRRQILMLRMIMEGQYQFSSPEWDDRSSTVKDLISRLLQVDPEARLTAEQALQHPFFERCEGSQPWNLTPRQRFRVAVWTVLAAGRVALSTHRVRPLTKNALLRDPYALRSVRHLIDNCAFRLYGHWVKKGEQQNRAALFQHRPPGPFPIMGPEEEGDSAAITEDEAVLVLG

[7] = molecular target: T4, Serine/threonine-protein kinase TBK1 (Homo sapiens, UniProt Q9UHD2)
T4 sequence (Q9UHD2 whole entry): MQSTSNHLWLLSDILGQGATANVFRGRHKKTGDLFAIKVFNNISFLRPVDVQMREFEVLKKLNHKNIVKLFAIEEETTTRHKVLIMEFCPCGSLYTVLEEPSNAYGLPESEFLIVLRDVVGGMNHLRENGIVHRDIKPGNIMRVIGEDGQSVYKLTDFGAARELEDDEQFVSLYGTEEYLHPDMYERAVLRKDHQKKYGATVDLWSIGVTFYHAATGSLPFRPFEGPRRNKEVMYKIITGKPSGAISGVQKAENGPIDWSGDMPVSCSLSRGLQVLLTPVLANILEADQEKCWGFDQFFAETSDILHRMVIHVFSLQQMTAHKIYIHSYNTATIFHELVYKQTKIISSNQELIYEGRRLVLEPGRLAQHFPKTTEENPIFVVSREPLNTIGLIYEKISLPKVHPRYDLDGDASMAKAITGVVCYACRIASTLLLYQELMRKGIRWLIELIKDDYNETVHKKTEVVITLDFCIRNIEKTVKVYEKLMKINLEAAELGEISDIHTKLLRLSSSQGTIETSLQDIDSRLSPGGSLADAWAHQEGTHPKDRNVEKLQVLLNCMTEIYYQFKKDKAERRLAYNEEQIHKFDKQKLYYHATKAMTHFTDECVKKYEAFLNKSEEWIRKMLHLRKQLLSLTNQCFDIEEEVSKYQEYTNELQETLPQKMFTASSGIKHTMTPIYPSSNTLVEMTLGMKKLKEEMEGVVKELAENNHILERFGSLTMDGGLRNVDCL

[8] = molecular target: Tyrosine-protein kinase ABL2 (Homo sapiens, UniProt P42684)
[9] = molecular target: Structural maintenance of chromosomes protein 2 (Homo sapiens, UniProt O95347)
[10] = molecular target: Fibroblast growth factor receptor 1 (Homo sapiens, UniProt P11362)
[11] = molecular target: BMP-2-inducible protein kinase (Homo sapiens, UniProt Q9NSY1)
[12] = molecular target: Tyrosine-protein kinase JAK1 (Homo sapiens, UniProt P23458)
Also: in the data inactive means no Kd found up to 30 µM.

Chain of Fibroblast growth factor receptor 1 (P11362 whole entry): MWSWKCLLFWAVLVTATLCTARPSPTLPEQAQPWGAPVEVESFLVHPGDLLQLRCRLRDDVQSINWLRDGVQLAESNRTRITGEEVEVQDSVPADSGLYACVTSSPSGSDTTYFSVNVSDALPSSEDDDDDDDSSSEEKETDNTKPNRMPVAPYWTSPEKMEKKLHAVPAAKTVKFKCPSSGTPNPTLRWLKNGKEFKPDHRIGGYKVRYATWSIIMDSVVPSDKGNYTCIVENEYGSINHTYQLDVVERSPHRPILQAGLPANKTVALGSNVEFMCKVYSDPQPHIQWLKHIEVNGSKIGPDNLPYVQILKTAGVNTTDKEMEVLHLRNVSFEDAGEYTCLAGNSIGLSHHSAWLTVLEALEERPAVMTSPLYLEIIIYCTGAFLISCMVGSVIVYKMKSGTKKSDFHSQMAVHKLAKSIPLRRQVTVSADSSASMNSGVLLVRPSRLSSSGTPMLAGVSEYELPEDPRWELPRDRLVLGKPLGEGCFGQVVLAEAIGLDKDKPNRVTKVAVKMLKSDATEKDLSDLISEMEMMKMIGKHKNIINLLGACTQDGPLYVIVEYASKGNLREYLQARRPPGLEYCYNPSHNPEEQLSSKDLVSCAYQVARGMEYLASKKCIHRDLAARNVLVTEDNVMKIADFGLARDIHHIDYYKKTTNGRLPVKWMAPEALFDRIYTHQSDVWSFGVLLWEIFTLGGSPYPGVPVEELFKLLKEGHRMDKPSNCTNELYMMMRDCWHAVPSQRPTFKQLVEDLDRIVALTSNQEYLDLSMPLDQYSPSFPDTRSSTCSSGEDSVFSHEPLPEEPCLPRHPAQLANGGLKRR
Chain of Tyrosine-protein kinase JAK1 (P23458 whole entry): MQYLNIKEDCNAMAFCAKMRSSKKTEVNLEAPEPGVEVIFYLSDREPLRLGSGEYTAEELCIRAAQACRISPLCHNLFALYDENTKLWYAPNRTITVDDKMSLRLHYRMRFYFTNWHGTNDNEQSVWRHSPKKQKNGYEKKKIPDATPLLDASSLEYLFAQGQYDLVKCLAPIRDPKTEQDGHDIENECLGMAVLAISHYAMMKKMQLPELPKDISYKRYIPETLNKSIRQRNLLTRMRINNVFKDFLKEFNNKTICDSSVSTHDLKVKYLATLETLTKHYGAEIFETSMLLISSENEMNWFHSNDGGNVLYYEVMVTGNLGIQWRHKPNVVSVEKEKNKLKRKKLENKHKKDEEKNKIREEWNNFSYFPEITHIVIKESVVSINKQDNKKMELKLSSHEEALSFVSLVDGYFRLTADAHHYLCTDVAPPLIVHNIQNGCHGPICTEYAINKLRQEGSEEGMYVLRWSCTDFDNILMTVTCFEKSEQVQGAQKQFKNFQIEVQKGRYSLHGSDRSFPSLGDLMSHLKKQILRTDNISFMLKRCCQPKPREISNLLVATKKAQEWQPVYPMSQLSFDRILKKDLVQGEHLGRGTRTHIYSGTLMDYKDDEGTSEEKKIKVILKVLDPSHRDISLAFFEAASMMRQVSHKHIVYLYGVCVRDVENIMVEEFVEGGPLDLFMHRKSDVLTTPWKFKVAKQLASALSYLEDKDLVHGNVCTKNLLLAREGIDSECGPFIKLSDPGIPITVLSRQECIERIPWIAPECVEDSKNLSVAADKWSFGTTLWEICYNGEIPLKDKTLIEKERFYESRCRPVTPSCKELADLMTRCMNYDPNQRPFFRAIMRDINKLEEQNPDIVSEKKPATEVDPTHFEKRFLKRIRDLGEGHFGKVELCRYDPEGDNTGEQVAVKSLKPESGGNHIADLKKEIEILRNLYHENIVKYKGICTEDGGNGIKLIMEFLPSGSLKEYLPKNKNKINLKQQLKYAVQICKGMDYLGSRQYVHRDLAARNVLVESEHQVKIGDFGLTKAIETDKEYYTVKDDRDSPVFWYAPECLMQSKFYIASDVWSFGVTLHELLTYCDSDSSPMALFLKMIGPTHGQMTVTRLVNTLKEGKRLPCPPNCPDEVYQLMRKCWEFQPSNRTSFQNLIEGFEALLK
Chain of Mitogen-activated protein kinase 11 (Q15759 whole entry, canonical isoform): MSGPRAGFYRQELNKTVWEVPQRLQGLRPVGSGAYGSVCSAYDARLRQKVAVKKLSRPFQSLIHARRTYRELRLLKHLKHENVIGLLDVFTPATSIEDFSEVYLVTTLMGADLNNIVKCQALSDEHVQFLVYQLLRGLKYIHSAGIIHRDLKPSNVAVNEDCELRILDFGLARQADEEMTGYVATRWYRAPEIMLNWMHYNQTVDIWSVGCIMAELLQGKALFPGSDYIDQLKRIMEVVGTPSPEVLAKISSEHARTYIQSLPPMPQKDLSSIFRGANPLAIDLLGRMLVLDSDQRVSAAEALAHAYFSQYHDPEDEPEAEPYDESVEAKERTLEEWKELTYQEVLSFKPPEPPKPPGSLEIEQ
Chain of Tyrosine-protein kinase ABL2 (P42684 whole entry): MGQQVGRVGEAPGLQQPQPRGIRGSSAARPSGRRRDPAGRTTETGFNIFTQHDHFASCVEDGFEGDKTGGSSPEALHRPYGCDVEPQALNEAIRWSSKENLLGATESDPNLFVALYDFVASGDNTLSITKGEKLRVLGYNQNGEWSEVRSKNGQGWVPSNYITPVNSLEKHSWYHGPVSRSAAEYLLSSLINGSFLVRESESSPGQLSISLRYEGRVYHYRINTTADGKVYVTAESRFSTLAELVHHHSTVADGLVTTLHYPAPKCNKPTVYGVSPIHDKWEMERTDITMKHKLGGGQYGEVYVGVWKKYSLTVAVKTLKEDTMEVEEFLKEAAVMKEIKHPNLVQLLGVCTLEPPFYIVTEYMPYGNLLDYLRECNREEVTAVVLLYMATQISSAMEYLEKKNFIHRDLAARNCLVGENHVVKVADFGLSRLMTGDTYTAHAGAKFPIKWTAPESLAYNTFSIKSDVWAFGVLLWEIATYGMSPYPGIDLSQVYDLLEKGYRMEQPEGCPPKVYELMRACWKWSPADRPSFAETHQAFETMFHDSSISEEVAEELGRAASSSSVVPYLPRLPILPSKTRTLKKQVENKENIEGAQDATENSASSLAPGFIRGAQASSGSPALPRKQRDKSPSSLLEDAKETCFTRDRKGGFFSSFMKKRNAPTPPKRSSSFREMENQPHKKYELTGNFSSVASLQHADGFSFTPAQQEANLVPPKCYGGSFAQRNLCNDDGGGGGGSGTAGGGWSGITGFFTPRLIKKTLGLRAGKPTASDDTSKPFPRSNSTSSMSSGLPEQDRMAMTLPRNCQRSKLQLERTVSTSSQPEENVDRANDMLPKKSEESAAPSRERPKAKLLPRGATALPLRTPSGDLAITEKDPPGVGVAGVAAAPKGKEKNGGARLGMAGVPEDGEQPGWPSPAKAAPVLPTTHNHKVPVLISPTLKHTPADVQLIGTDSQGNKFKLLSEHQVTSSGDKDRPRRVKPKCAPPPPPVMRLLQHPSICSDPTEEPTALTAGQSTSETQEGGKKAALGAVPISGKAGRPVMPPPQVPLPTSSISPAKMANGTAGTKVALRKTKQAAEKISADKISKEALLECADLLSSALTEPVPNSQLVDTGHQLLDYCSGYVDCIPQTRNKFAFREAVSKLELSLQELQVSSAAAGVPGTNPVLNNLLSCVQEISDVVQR
Chain of BMP-2-inducible protein kinase (Q9NSY1 whole entry): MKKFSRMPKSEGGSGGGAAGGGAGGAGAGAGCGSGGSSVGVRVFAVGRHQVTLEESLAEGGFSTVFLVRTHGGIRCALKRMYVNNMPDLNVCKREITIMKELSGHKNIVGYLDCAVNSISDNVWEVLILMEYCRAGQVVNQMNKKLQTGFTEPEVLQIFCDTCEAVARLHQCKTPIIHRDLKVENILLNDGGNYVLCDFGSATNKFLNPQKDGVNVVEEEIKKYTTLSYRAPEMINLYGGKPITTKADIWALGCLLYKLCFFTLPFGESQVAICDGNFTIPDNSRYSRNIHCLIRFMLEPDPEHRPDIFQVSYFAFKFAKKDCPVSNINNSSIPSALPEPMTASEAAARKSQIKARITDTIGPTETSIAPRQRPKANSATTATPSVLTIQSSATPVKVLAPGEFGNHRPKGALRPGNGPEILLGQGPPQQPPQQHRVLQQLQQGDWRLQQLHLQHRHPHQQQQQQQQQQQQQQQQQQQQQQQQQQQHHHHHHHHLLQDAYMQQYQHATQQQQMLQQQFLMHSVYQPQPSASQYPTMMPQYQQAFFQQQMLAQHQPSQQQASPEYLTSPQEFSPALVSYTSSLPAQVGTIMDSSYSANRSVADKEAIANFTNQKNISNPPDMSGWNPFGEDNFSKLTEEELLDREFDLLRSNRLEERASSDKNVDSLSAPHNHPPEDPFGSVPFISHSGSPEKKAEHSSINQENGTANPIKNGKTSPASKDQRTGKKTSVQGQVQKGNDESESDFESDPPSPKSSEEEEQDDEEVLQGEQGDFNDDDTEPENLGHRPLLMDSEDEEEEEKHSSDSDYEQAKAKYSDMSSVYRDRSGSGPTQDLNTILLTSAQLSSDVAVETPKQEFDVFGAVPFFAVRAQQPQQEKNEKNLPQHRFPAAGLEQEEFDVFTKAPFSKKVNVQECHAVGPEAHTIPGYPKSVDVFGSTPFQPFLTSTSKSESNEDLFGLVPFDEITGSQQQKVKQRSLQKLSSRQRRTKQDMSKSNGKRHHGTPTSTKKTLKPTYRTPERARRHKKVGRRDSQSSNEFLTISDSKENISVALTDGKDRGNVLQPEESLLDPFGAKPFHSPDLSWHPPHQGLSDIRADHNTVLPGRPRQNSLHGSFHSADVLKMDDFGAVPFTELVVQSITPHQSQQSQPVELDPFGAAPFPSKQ

| Compound | Kd [1] | Kd [2] | Kd [3] | Kd [4] | Kd [5] | Kd [6] | Kd [7] | Kd [8] | Kd [9] | Kd [10] | Kd [11] | Kd [12] |
| --- | --- | --- | --- | --- | --- | --- | --- | --- | --- | --- | --- | --- |
| c1cc(OCCN2CCCCC2)cc(-c2n[nH]c3ccc(-c4nc[nH]n4)cc23)c1 [CC-401] | > 30 µM (inactive) | > 30 µM (inactive) | 2.61 µM (active) | > 30 µM (inactive) | > 30 µM (inactive) | > 30 µM (inactive) | > 30 µM (inactive) | > 30 µM (inactive) | > 30 µM (inactive) | > 30 µM (inactive) | 1.47 µM (active) | > 30 µM (inactive) |
| O=c1[nH]c([C@@H]2CCCN2)nc2c1oc1ccc(Cl)cc12 | > 30 µM (inactive) | > 30 µM (inactive) | > 30 µM (inactive) | > 30 µM (inactive) | > 30 µM (inactive) | > 30 µM (inactive) | > 30 µM (inactive) | > 30 µM (inactive) | > 30 µM (inactive) | > 30 µM (inactive) | > 30 µM (inactive) | > 30 µM (inactive) |
| COc1ccc(-c2ccc3ncc4c(c3c2)n(-c2ccc(N3CCNCC3)c(C(F)(F)F)c2)c(=O)n4C)cn1 [BGT-226 FREE BASE] | > 30 µM (inactive) | > 30 µM (inactive) | > 30 µM (inactive) | > 30 µM (inactive) | > 30 µM (inactive) | > 30 µM (inactive) | > 30 µM (inactive) | > 30 µM (inactive) | > 30 µM (inactive) | > 30 µM (inactive) | > 30 µM (inactive) | > 30 µM (inactive) |
